Test [1] concerns the target T1, NAD-dependent protein deacetylase sirtuin-1 (Homo sapiens, UniProt Q96EB6).
T1 sequence (Q96EB6 whole entry): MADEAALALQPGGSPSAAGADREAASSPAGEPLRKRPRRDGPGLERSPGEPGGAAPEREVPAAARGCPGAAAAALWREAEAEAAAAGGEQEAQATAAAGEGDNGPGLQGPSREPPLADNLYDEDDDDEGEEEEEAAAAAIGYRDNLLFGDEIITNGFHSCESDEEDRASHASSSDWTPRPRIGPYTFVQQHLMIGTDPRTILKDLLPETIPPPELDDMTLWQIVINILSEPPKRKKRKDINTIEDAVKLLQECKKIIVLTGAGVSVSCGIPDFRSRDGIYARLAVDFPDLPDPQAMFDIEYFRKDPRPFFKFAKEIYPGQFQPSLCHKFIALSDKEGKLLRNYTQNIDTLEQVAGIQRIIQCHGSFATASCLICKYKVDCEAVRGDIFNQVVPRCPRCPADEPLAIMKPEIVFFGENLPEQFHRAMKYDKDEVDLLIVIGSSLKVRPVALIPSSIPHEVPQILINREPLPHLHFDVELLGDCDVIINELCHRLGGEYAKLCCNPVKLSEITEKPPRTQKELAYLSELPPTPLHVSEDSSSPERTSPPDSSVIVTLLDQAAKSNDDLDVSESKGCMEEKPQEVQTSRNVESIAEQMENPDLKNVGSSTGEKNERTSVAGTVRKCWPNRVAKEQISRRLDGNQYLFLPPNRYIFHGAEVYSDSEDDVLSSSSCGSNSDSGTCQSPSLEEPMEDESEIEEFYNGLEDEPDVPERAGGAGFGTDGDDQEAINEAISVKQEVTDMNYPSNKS
Briefly: Inhibition of human recombinant SIRT1 after 60 mins by fluorimetric analysis.

The target of test [2] is T2, NAD-dependent protein deacetylase sirtuin-2 (Homo sapiens, UniProt Q8IXJ6).
T2 sequence (Q8IXJ6 whole entry): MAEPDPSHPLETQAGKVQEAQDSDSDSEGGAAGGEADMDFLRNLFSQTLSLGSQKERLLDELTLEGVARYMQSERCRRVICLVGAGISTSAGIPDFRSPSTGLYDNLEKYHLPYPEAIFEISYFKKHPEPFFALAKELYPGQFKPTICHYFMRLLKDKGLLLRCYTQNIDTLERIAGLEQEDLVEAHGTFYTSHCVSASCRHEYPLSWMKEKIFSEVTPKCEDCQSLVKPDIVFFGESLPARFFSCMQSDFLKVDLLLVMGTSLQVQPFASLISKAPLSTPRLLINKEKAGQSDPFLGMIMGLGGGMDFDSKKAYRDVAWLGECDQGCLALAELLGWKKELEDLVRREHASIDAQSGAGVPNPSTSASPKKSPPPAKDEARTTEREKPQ
Briefly: Inhibition of human recombinant SIRT2 after 60 mins by fluorimetric analysis.

The target of test [3] is T3, NAD-dependent protein deacetylase sirtuin-3, mitochondrial (Homo sapiens, UniProt Q9NTG7).
T3 sequence (Q9NTG7 whole entry): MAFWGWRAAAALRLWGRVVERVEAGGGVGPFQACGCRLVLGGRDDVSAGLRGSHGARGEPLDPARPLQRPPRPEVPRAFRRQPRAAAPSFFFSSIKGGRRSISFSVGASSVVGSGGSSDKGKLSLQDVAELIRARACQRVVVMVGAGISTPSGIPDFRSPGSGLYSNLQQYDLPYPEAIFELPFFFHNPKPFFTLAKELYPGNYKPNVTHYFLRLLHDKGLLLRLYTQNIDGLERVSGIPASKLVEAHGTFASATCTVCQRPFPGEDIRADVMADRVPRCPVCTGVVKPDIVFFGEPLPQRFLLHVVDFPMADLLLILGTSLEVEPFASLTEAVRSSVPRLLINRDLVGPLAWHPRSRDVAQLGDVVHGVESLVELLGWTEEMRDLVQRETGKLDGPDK
Briefly: Inhibition of human recombinant SIRT3 after 60 mins by fluorimetric analysis.

For the molecule `CC(=S)NCCCC[C@H](NC(=O)OCc1ccccc1)C(=O)Nc1ccccc1`, the IC50 in test [1] is 2.7 µM; in test [2], 23 µM; in test [3] it was > 100 µM.

For the origin of these results see ChEMBL document CHEMBL1155190, “Identification of a cell-active non-peptide sirtuin inhibitor containing N-thioacetyl lysine” (Bioorg Med Chem Lett, 2009).
